The values below come from patent US5547970A, “Use of leflunomide for inhibiting tumor necrosis factor alpha” (priority 1993, dated 1996).

The subject of one series is TNFalpha. Description: Inhibition of lipopolysaccharide-induced synthesis and liberation of TNFalpha in human mononuclear blood cells (sandwich enzyme immuno test). The following applies: for activity at 10 µM: 0.01 mmol/l; for activity at 100 µM: 0.1 mmol/l; for inhibitory effect on the synthesis and liberation of cytokines from human blood cells / effect on the TNFalpha level: in words; for effect on the TNFalpha level: experiments in Tab. 1. Type of series: cell-based. The protocol: The cell fraction which was visible as a white ring at the phase boundary was removed with the aid of a syringe, diluted 1:1 (v/v) with PM-16 buffer (from Serva Feinbiochemica GmbH & Co. KG, Heidelberg) and then centrifuged once again, as above, for 10 min. […] Using a cell counter (type IT, from Coulter Diagnostics, Krefeld), the cell suspension, which is composed of about 90% lymphocytes and 10% monocytes, was adjusted to about 5 million cells/ml. Cell viability was monitored before and after the inhibition experiments using the known lactate dehydrogenase method.
The synthesis and liberation of cellular TNFalpha was induced by adding a solution of 500 ng of lipopolysaccharide (Salmonella abortus equi, Sigma GmbH, Deisenhofen) in 0.01 ml of dimethyl sulfoxide/water (1:10, v/v) to 0.48 ml of the above-described cell fraction. At the same time, a solution of leflunomide or leflunomide metabolite in 0.01 ml of dimethylsulfoxide (for the final concentration in each case, see Tab. 1) was added to the cell fraction and the mixture was left at 37° C. for 20 h in a commercially available incubator. After cooling down to 0° C., the samples were centrifuged for 1 min. in a bench centrifuge. and in each case 0.025 ml aliquots of the supernatant were examined for their TNFalpha content using a "sandwich" enzyme immuno test kit (from Biermann GmbH, Bad Nauheim) in accordance with the manufacturer's instructions. The control values were determined without the addition of leflunomide or its metabolites and set at 100%. In particular, any possible influence of dimethylsulfoxide on the TNFalpha level was excluded by appropriate comparative measurements.

A short description of series [1]: Metabolism of leflunomide in the test sample (mononuclear cell fraction), HPLC. Type of series: in vitro ADME, human. The following applies: human, mononuclear cells; mononuclear cell fraction, 37° C., HPLC; read-out: half life of metabolism of leflunomide to its metabolites (converted).
The test system of a further series is mononuclear cells. The description is as above. Type of series: in vitro ADME, human. The conditions noted are these: in words; isolated mononuclear blood cells.
Where [2] appears, read: Homo sapiens, LPS 500 ng, 37° C., 20 h, control = 100%, read-out: TNFalpha in the supernatant % +/- standard deviation.

What is called half-life is the time in which the quantity being followed falls by half.

“Also recorded” adds a separate entry of the source.

On to `C/C(O)=C(\C#N)C(=O)Nc1ccc(C(F)(F)F)cc1` [Leflunomide metabolite, N-(4-trifluoromethylphenyl)-2-cyano-3-hydroxycrotonamide], for which, in the series on TNFalpha (setting [2]), the activity at 10 µM was found to be 102 ± 12% and the activity at 100 µM amounted to 105%. In the series on TNFalpha, the “inhibitory effect on the synthesis and liberation of cytokines from human blood cells” value is on record as “does not exhibit this advantageous effect”; the “effect on the TNFalpha level” value is reported as “practically no effect on the TNFalpha level”.

For the compound `Cc1oncc1C(=O)Nc1ccc(C(F)(F)F)cc1` [Leflunomide, N-(4-trifluoromethylphenyl)-5-methylisoxazole-4-carboxamide], in the series with TNFalpha (setting [2]), the activity at 10 µM is 100 ± 15% and the activity at 100 µM turned out to be 28 ± 5%. In addition, the activity at 50 µM in the series with TNFalpha (Homo sapiens, 0.05 mmol/l, LPS 500 ng, 37° C., 20 h, control = 100%, read-out: TNFalpha in the supernatant % +/- standard deviation) was 35%. For the same compound, in the series on TNFalpha, the “inhibitory effect on the synthesis and liberation of cytokines from human blood cells” value is “strong inhibitory effect”; the “effect on the TNFalpha level” value is “clearly lowered”. The half-life in series [1] is about 10 h. The “metabolism of leflunomide under the experimental conditions” value in the series with mononuclear cells was “did not, to any appreciable extent, metabolize; also recorded: only very slowly; also recorded: no appreciable metabolism”.
